Measured values reported in patent publication US20250230153A1, “2,3-DIHYDROBENZO[B][1,4]DIOXIN-6-YL CONTAINING COMPOUNDS USEFUL AS IMMUNOMODULATORS” (BRISTOL-MYERS SQUIBB COMPANY, priority 2021, published 2025).

Biological target: PD-1/PD-L1 (Homo sapiens (Human), UniProt Q9NZQ7)
Assay: PD-1/PD-L1 Homogenous Time-Resolved Fluorescence (HTRF) binding assay
Settings: PD-1-Ig (20 nM final)/PD-L1-His (10 nM final) binding assay
Excerpt: The ability of the compounds of the invention to bind to PD-L1 was investigated using a PD-1/PD-L1 Homogenous Time-Resolved Fluorescence (HTRF) binding assay.
The interaction of PD-1 and PD-L1 can be assessed using soluble, purified preparations of the extracellular domains of the two proteins. The PD-1 and PD-L1 protein extracellular domains were expressed as fusion proteins with detection tags, for PD-1, the tag was the Fc portion of Immunoglobulin (PD-1-Ig) and for PD-L1 it was the 6 histidine motif (PD-L1-His). All binding studies were performed in an HTRF assay buffer consisting of dPBS supplemented with 0.1% […] bovine serum albumin and 0.05% (v/v) Tween-20. For the h/PD-L1-His binding assay, inhibitors were pre-incubated with PD-L1-His (10 nM final) for 15m in 4 μl of assay buffer, followed by addition of PD-1-Ig (20 nM final) in 1 μl of assay buffer and further incubation for 15 m. HTRF detection was achieved using europium crypate-labeled anti-Ig (1 nM final) and allophycocyanin (APC) labeled anti-His (20 nM final). Antibodies were diluted in HTRF detection buffer and 5 μl was dispensed on top of the binding reaction. The reaction mixture was allowed to equilibrate for 30 minutes and the resulting signal (665 nm/620 nm ratio) was obtained using an EnVision fluorometer. Additional binding assays were established between the human proteins PD-1-Ig/PD-L2-His (20 & 5 nM, respectively) and CD80-His/PD-L1-Ig (100 & 10 nM, respectively).
Recombinant Proteins: Human PD-1 (25-167) with a C-terminal human Fc domain of immunoglobulin G (Ig) epitope tag [hPD-1 (25-167)-3S-IG] and human PD-L1 (18-239) with a C-terminal His epitope tag [hPD-L1(18-239)-TVMV-His] were expressed in HEK293T cells and purified sequentially by ProteinA affinity chromatography and size exclusion chromatography. Human PD-L2-His and CD80-His was obtained through commercial sources.
Homogenous Time-Resolved Fluorescence (HTRF) Assays of Binding of Soluble PD-1 to Soluble PD-L1. Soluble PD-1 and soluble PD-L1 refers to proteins with carboxyl-end truncations that remove the transmembrane-spanning regions and are fused to heterologous sequences, specifically the Fc portion of the human immunoglobuling G sequence (Ig) or the hexahistidine epitope tag (His). All binding studies were performed in an HTRF assay buffer consisting of dPBS supplemented with 0.1% (w/v) bovine serum albumin and 0.05% (v/v) Tween-20. For the PD-1-Ig/PD-L1-His binding assay, inhibitors were pre-incubated with PD-L1-His (10 nM final) for 15m in 4 μl of assay buffer, followed by addition of PD-1-Ig (20 nM final) in 1 μl of assay buffer and further incubation for 15 m. PD-L1 fusion proteins from either human, cynomologous macaques, mouse, or other species were used. HTRF detection was achieved using europium crypate-labeled anti-Ig monoclonal antibody (1 nM final) and allophycocyanin (APC) labeled anti-His monoclonal antibody (20 nM final). Antibodies were diluted in HTRF detection buffer and 5 μl was dispensed on top of binding reaction. The reaction was allowed to equilibrate for 30 minutes and signal (665 nm/620 nm ratio) was obtained using an EnVision fluorometer. Additional binding assays were established between PD-1-Ig/PD-L2-His (20 and 5 nM, respectively), CD80-His/PD-L1-Ig (100 and 10 nM, respectively) and CD80-His/CTLA4-Ig (10 and 5 nM, respectively).
Recombinant Proteins. Carboxyl-truncated human PD-1 (amino acids 25-167) with a C-terminal human Ig epitope tag [hPD-1 (25-167)-3S-IG] and human PD-L1 (amino acids 18-239) with a C-terminal His epitope tag [hPD-L1(19-239)-tobacco vein mottling virus protease cleavage site (TVMV)-His] were expressed in HEK293T cells and purified sequentially by recombinant Protein A affinity chromatography and size exclusion chromatography. Human PD-L2-His (Sino Biologicals), CD80-His (Sino Biologicals), CTLA4-Ig (RnD Systems) were all obtained through commercial sources.

Sequence of PD-1/PD-L1 (Q9NZQ7 18-239): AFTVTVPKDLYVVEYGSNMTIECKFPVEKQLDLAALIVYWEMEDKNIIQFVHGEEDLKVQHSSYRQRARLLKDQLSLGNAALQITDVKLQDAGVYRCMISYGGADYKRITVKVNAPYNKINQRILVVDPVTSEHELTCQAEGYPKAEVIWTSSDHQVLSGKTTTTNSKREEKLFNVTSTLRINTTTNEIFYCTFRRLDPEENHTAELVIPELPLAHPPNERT

Row | SMILES | IC50
1 | Cc1c(COc2cc(OCc3cnn(CC#N)c3)c(CN[C@@](C)(CO)C(=O)O)cc2Cl)cccc1-c1ccc2c(c1)OCCO2 [Example 1008, (S)-2-((5-chloro-2-((1-(cyanomethyl)-1H-pyrazol-4-yl)methoxy)-4-((3-(2,3-dihydrobenzo[b][1,4]dioxin-6-yl)-2-methylbenzyl)oxy)benzyl)amino)-3-hydroxy-2-methylpropanoic acid] | 1.7 nM
2 | Cc1c(COc2cc(OCCN3CCCC(O)(C(F)(F)F)C3)c(CN[C@](C)(CO)C(=O)O)cc2Cl)cccc1-c1ccc2c(c1)OCCO2 (stereo partly drawn) [Example 1057, (2R)-2-((5-Chloro-4-((3-(2,3-dihydrobenzo[b][1,4]dioxin-6-yl)-2-methylbenzyl)oxy)-2-(2-(3-hydroxy-3-(trifluoromethyl)piperidin-1-yl)ethoxy)benzyl)amino)-3-hydroxy-2-methylpropanoic acid] | 6.2 nM
3 | Cc1c(COc2cc(OCc3cnn(-c4ccccn4)c3)c(CN[C@@](C)(CO)C(=O)O)cc2Cl)cccc1-c1ccc2c(c1)OCCO2 [Example 1011, (S)-2-((5-Chloro-4-((3-(2,3-dihydrobenzo[b][1,4]dioxin-6-yl)-2-methylbenzyl)oxy)-2-((1-(pyridin-2-yl)-1H-pyrazol-4-yl)methoxy)benzyl)amino)-3-hydroxy-2-methylpropanoic acid] | 11 nM
4 | Cc1c(COc2cc(OCc3cncc(S(=O)(=O)CCC(=O)O)c3)c(CN3CCCC[C@H]3C(=O)O)cc2Cl)cccc1-c1ccc2c(c1)OCCO2 [Example 1012, (S)-1-(2-((5-((2-Carboxyethyl)sulfonyl)pyridin-3-yl)methoxy)-5-chloro-4-((3-(2,3-dihydrobenzo[b]1[1,4]dioxin-6-yl)-2-methylbenzyl)oxy)benzyl)piperidine-2-carboxylic acid] | 3 nM
5 | Cc1c(COc2cc(OCCN3CCCCC3)c(CN3CCCC[C@H]3C(=O)O)cc2Cl)cccc1-c1ccc2c(c1)OCCO2 [Example 1042, (S)-1-(5-Chloro-4-((3-(2,3-dihydrobenzo[b][1,4]dioxin-6-yl)-2-methylbenzyl)oxy)-2-(2-(piperidin-1-yl)ethoxy)benzyl)piperidine-2-carboxylic acid] | 0.6 nM
6 | Cc1c(COc2cc(OC[C@H](C)CO)c(CN3CCCC[C@H]3C(=O)O)cc2Cl)cccc1-c1ccc2c(c1)OCCO2 [Example 1031, (S)-1-(5-Chloro-4-((3-(2,3-dihydrobenzo[b][1,4]dioxin-6-yl)-2-methylbenzyl)oxy)-2-((R)-3-hydroxy-2-methylpropoxy)benzyl)piperidine-2-carboxylic acid] | 14.7 nM
7 | COC(=O)CCSc1cncc(COc2cc(OCc3cccc(-c4ccc5c(c4)OCCO5)c3C)c(Cl)cc2CN2CCCC[C@H]2C(=O)O)c1 [Example 1007, (S)-1-(5-Chloro-4-((3-(2,3-dihydrobenzo[b][1,4]dioxin-6-yl)-2-methylbenzyl)oxy)-2-((5-((3-methoxy-3-oxopropyl)thio)pyridin-3-yl)methoxy)benzyl)piperidine-2-carboxylic acid] | 27.6 nM
8 | Cc1c(COc2cc(OCCN3CC[C@@H](O)C3)c(CN[C@](C)(CO)C(=O)O)cc2Cl)cccc1-c1ccc2c(c1)OCCO2 [Example 1022, (R)-2-((5-Chloro-4-((3-(2,3-dihydrobenzo[b][1,4]dioxin-6-yl)-2-methylbenzyl)oxy)-2-(2-((R)-3-hydroxypyrrolidin-1-yl)ethoxy)benzyl)amino)-3-hydroxy-2-methylpropanoic acid] | 2.7 nM
9 | Cc1c(COc2cc(OCCCCN3CC[C@@H](O)C3)c(CNC(C)(CO)CO)cc2Cl)cccc1-c1ccc2c(c1)OCCO2 [Example 1027, (R)-2-((5-Chloro-4-((3-(2,3-dihydrobenzo[b][1,4]dioxin-6-yl)-2-methylbenzyl)oxy)-2-(4-(3-hydroxypyrrolidin-1-yl)butoxy)benzyl)amino)-2-methylpropane-1,3-diol] | 4.1 nM
10 | Cc1c(COc2cc(OCc3cncc(C(=O)N[C@@H](CO)C(=O)O)c3)c(CN3CC[C@H](O)C3)cc2Cl)cccc1-c1ccc2c(c1)OCCO2 [Example 2009, (S)-2-(5-((4-chloro-5-((3-(2,3-dihydrobenzo[b][1,4]dioxin-6-yl)-2-methylbenzyl)oxy)-2-(((S)-3-hydroxypyrrolidin-1-yl)methyl)phenoxy)methyl)nicotinamido)-3-hydroxypropanoic acid] | 4.6 nM

The next lines start with the values.

Row | IC50 | SMILES
11 | 3.4 nM | Cc1c(COc2cc(OC[C@@H](C)CO)c(CN[C@](C)(CO)C(=O)O)cc2Cl)cccc1-c1ccc2c(c1)OCCO2 [Example 1035, (R)-2-((5-chloro-4-((3-(2,3-dihydrobenzo[b][1,4]dioxin-6-yl)-2-methylbenzyl)oxy)-2-((S)-3-hydroxy-2-methylpropoxy)benzyl)amino)-3-hydroxy-2-methylpropanoic acid]
12 | 3.1 nM | Cc1c(COc2cc(OCc3cncc(S(=O)(=O)NCCC(=O)O)c3)c(CN[C@@](C)(CO)C(=O)O)cc2Cl)cccc1-c1ccc2c(c1)OCCO2 [Example 1020, (S)-2-((2-((5-(N-(2-Carboxyethyl)sulfamoyl)pyridin-3-yl)methoxy)-5-chloro-4-((3-(2,3-dihydrobenzo[b]1[1,4]dioxin-6-yl)-2-methylbenzyl)oxy)benzyl)amino)-3-hydroxy-2-methylpropanoic acid]
13 | 3.4 nM | Cc1c(COc2cc(OCc3cncc(C(=O)NCCCN(C)C)c3)c(CN3CC[C@H](O)C3)cc2Cl)cccc1-c1ccc2c(c1)OCCO2 [Example 2007, (S)-5-((4-chloro-5-((3-(2,3-dihydrobenzo[b][1,4]dioxin-6-yl)-2-methylbenzyl)oxy)-2-((3-hydroxypyrrolidin-1-yl)methyl)phenoxy)methyl)-N-(3-(dimethylamino)propyl)nicotinamide]
14 | 4.6 nM | Cc1c(COc2cc(OC[C@@H](C)CO)c(CNC(C)(CO)CO)cc2Cl)cccc1-c1ccc2c(c1)OCCO2 [Example 1036, (S)-2-((5-Chloro-4-((3-(2,3-dihydrobenzo[b][1,4]dioxin-6-yl)-2-methylbenzyl)oxy)-2-(3-hydroxy-2-methylpropoxy)benzyl)amino)-2-methylpropane-1,3-diol]
15 | 5.8 nM | CCn1cc(COc2cc(OCc3cccc(-c4ccc5c(c4)OCCO5)c3C)c(Cl)cc2CN[C@@](C)(CO)C(=O)O)cn1 [Example 1003, (S)-2-((5-Chloro-4-((3-(2,3-dihydrobenzo[b][1,4]dioxin-6-yl)-2-methylbenzyl)oxy)-2-((1-ethyl-1H-pyrazol-4-yl)methoxy)benzyl)amino)-3-hydroxy-2-methylpropanoic acid]
16 | 1.9 nM | Cc1c(COc2cc(OCC3CCCN(C)C3)c(CN[C@@H](CO)C(=O)O)cc2Cl)cccc1-c1ccc2c(c1)OCCO2 (single isomer, unassigned) [Example 2005]
17 | 6.5 nM | Cc1c(COc2cc(OCc3cncc(C(=O)N[C@@H](CCCNC(=N)N)C(=O)O)c3)c(CN3CC[C@H](O)C3)cc2Cl)cccc1-c1ccc2c(c1)OCCO2 [Example 2010, (S)-2-(5-((4-chloro-5-((3-(2,3-dihydrobenzo[b][1,4]dioxin-6-yl)-2-methylbenzyl)oxy)-2-(((S)-3-hydroxypyrrolidin-1-yl)methyl)phenoxy)methyl)nicotinamido)-5-guanidinopentanoic acid]
18 | 50.5 nM | Cc1c(COc2cc(OCC3CCCCC3)c(CNC(C)(CO)CO)cc2Cl)cccc1-c1ccc2c(c1)OCCO2 [Example 1041, 2-((5-Chloro-2-(cyclohexylmethoxy)-4-((3-(2,3-dihydrobenzo[b][1,4]dioxin-6-yl)-2-methylbenzyl)oxy)benzyl)amino)-2-methylpropane-1,3-diol]
